{
  "source": "patent US20150164875A1",
  "about": "“Compound Preparation of Lercanidipine and Atorvastatin” (ZHAOKE PHARMACEUTICAL (GUANGZHOU) COMPANY LIMITED, priority 2012, published 2015)",
  "key": {"[1]": {"test_system": "SD rats with hypertension accompanied by dyslipidemia", "assay": "Serum TC and TG in experimental rats with hypertension accompanied by dyslipidemia (Example 5)", "type": "in vivo, rat", "settings": "for TC / TG: gavage once a day, serum after 20 weeks, Mean ± SD; for TC and TG as compared with the solvent control group (in words): end of week 20, lercanidipine 0.5 mg/kg, atorvastatin 1.0 mg/kg, compound 0.5 mg/kg+0.5/1.0/2.0 mg/kg, positive control 0.5 mg/kg+1.0 mg/kg", "protocol": "SD rats, weighing 150-180 g, were anaesthetized by intraperitoneal injection with chloral hydrate (320 mg/kg). The abdominal cavity was opened, and the left renal artery was separated and was restricted with 0.2 mm silver clip. […] Rats in normal control group were fed with normal diet. After four weeks, systolic pressure was measured in rats, serum total cholesterol (TC) and triglyceride (TG) levels were determined by taking blood from tail vein.\n(§1) 140 rats with hypertension accompanied by dyslipidemia were evenly divided into 7 groups with 20 rats in each group according to blood pressure and lipid levels, which were respectively solvent control group, lercanidipine group (lercanidipine hydrochloride, 0.5 mg/kg), atorvastatin group (atorvastatin calcium, 1.0 mg/kg), lercanidipine/atorvastatin compound group 1 (lercanidipine hydrochloride+atorvastatin calcium, 0.5 mg/kg+0.5 mg/kg), lercanidipine/atorvastatin compound group 2 (lercanidipine hydrochloride+atorvastatin calcium, 0.5 mg/kg+1.0 mg/kg), lercanidipine/atorvastatin compound group 3 (lercanidipine hydrochloride+atorvastatin calcium, 0.5 mg/kg+2.0 mg/kg), and positive control group (amlodipine besylate+atorvastatin calcium, 0.5 mg/kg+1.0 mg/kg).\n(§2) Another 20 normal rats served as normal control group. Rats with hypertension were continued to be fed with the high-fat diet, and rats in normal group were fed with normal diet. Each group of drugs was formulated with physiological saline, and for the normal control group and solvent control group rats, same volume of physiological saline were administered. Rats were administered by gavage once a day for 20 consecutive weeks. Rats were weighed once a week, and the dosage was adjusted based on the weight. Blood pressures in different time points before and after administration were measured respectively to calculate the magnitude of the decrease in blood pressure (systolic pressure before administration−systolic pressure after administration). Rats were sampled 20 weeks later, and the serum total cholesterol (TC) and triglyceride (TG) levels were determined. The corresponding parameters for each group were represented with the mean±standard deviation (Mean±SD), and t-test was used to compare different groups."}, "[2]": {"test_system": "SD rats with hypertension accompanied by dyslipidemia", "assay": "Decrease in systolic pressure in experimental (renal artery clip) rats with hypertension accompanied by dyslipidemia (Example 5)", "type": "in vivo, rat", "settings": "for Degree of antihypertension: gavage once a day, 20 weeks, systolic pressure before minus after administration, Mean ± SD; for systolic pressure as compared with the solvent control group (in words): end of week 20, lercanidipine 0.5 mg/kg, atorvastatin 1.0 mg/kg, compound 0.5 mg/kg+0.5/1.0/2.0 mg/kg, positive control 0.5 mg/kg+1.0 mg/kg", "protocol": "SD rats, weighing 150-180 g, were anaesthetized by intraperitoneal injection with chloral hydrate (320 mg/kg). The abdominal cavity was opened, and the left renal artery was separated and was restricted with 0.2 mm silver clip. At 8-10 weeks following the procedure, rats with systolic pressure ≧140 mmHg were recognized as hypertension rats. Rats with hypertension were administered with vitamin D3 by gavage in a total dosage of 600,000 U/kg in three days, and then were fed with high-fat diet every day (cholesterol 1.0%, propylthiouracil 0.2%, sodium cholate 0.5%, lard 5.0%, methionine 1.0%, basal diet 92.3%). Rats in normal control group were fed with normal diet. After four weeks, systolic pressure was measured in rats, serum total cholesterol (TC) and triglyceride (TG) levels were determined by taking blood from tail vein.\nas §1, §2"}, "[3]": {"test_system": "rats with spontaneous hypertension (adult MHS rats) fed with high fat diet", "assay": "Total serum cholesterol in rats with spontaneous hypertension accompanied by dyslipidemia (Example 4)", "type": "in vivo, rat", "settings": "for total cholesterol: B 0.4 mg/kg, C 0.8 mg/kg, D 0.4 mg/kg+0.8 mg/kg, Mean ± SD; for change in total cholesterol (in words): over 4 weeks of administration, C and D p<0.05, B p>0.05", "protocol": "(§3) 5-month-old rats with spontaneous hypertension (adult MHS rats), half males and half females, were fed with high fat diet every day (1.0% of cholesterol, 0.2% of propylthiouracil, 0.5% of sodium cholate, 5.0% of lard, 1.0% of methionine and 92.3% of basal diet) for four weeks; after four weeks, the basal systolic pressure and lipid levels in rats weighing 200-240 g were determined. Rats with hypertension accompanied with dyslipidemia were evenly divided into 4 groups with 12 rates in each group. The four groups were respectively as follows: solvent control group (A), lercanidipine group (lercanidipine hydrochloride, 0.4 mg/kg) (B), atorvastatin group (atorvastatin calcium, 0.8 mg/kg) (C), and lercanidipine/atorvastatin compound group (lercanidipine hydrochloride+atorvastatin calcium, 0.4 mg/kg+0.8 mg/kg) (D). Each group of drugs was formulated with physiological saline, and were administered to rats by gavage once a day for 4 consecutive weeks. Rats were measured 2 hours after administration at the end of each week for the systolic pressure and total serum cholesterol levels and so on."}, "[4]": {"test_system": "rats with spontaneous hypertension (adult MHS rats) fed with high fat diet", "assay": "Systolic pressure in rats with spontaneous hypertension accompanied by dyslipidemia (Example 4)", "type": "in vivo, rat", "settings": "for systolic pressure: B 0.4 mg/kg, C 0.8 mg/kg, D 0.4 mg/kg+0.8 mg/kg, Mean ± SD", "protocol": "as §3"}, "[5]": {"settings": "cited from earlier work"}, "[6]": {"settings": "0 week (basal, before administration)"}, "[7]": {"settings": "1 week, 2 hours after administration, gavage once a day"}, "[8]": {"settings": "2 weeks, 2 hours after administration, gavage once a day"}, "[9]": {"settings": "3 weeks, 2 hours after administration, gavage once a day"}, "[10]": {"settings": "4 weeks, 2 hours after administration, gavage once a day"}},
  "note": "Counter-ions that a name gives are not always drawn. Like-named read-outs stand apart in the source and are kept apart here.",
  "data": [
    {"compound": "COC(=O)C1=C(C)NC(C)=C(C(=O)OC(C)(C)CN(C)CCC(c2ccccc2)c2ccccc2)C1c1cccc([N+](=O)[O-])c1", "note": "(stereo not drawn) [Group B, lercanidipine hydrochloride]", "values": [
      {"measurement": "TC", "setting": "[1]; dosage 0.5 mg/kg", "value": "8.27 ± 2.96", "unit": "mmol/L"},
      {"measurement": "TG", "setting": "[1]; dosage 0.5 mg/kg", "value": "2.43 ± 1.21", "unit": "mmol/L"},
      {"measurement": "TC and TG as compared with the solvent control group (in words)", "setting": "[1]", "value": "improved"},
      {"measurement": "Degree of antihypertension", "setting": "[2]; dosage 0.5 mg/kg", "value": "35.8 ± 9.65", "unit": "mmHg"},
      {"measurement": "systolic pressure as compared with the solvent control group (in words)", "setting": "[2]", "value": "significantly decreased"},
      {"measurement": "total cholesterol", "setting": "[3]; [6]", "value": "8.49 ± 3.01", "unit": "mmol/L"},
      {"measurement": "total cholesterol", "setting": "[3]; 1 week, gavage once a day", "value": "7.95 ± 2.48", "unit": "mmol/L"},
      {"measurement": "total cholesterol", "setting": "[3]; 2 weeks, gavage once a day", "value": "7.55 ± 1.94", "unit": "mmol/L"},
      {"measurement": "total cholesterol", "setting": "[3]; 3 weeks, gavage once a day", "value": "7.28 ± 1.76", "unit": "mmol/L"},
      {"measurement": "total cholesterol", "setting": "[3]; 4 weeks, gavage once a day", "value": "7.01 ± 1.77", "unit": "mmol/L"},
      {"measurement": "change in total cholesterol (in words)", "setting": "[3]", "value": "decreased"},
      {"measurement": "systolic pressure", "setting": "[4]; [6]", "value": "162 ± 4.1", "unit": "mmHg"},
      {"measurement": "systolic pressure", "setting": "[4]; [7]", "value": "158 ± 3.7", "unit": "mmHg"},
      {"measurement": "systolic pressure", "setting": "[4]; [8]", "value": "149 ± 5.1", "unit": "mmHg"},
      {"measurement": "systolic pressure", "setting": "[4]; [9]", "value": "138 ± 3.4", "unit": "mmHg"},
      {"measurement": "systolic pressure", "setting": "[4]; [10]", "value": "135 ± 2.5", "unit": "mmHg"},
      {"measurement": "change in systolic pressure (in words)", "setting": "[4]; over 4 weeks of administration, p<0.01", "value": "decreased to normal blood pressure levels"}
    ]},
    {"compound": "CC(C)c1c(C(=O)Nc2ccccc2)c(-c2ccccc2)c(-c2ccc(F)cc2)n1CC[C@@H](O)C[C@@H](O)CC(=O)[O-].CC(C)c1c(C(=O)Nc2ccccc2)c(-c2ccccc2)c(-c2ccc(F)cc2)n1CC[C@@H](O)C[C@@H](O)CC(=O)[O-].[Ca+2]", "note": "[Group C, atorvastatin calcium]", "values": [
      {"measurement": "TC", "setting": "[1]; dosage 1.0 mg/kg", "value": "5.27 ± 4.03", "unit": "mmol/L"},
      {"measurement": "TG", "setting": "[1]; dosage 1.0 mg/kg", "value": "1.49 ± 0.74", "unit": "mmol/L"},
      {"measurement": "TC and TG as compared with the solvent control group (in words)", "setting": "[1]", "value": "significantly decreased"},
      {"measurement": "Degree of antihypertension", "setting": "[2]; dosage 1.0 mg/kg", "value": "2.4 ± 1.98", "unit": "mmHg"},
      {"measurement": "systolic pressure as compared with the solvent control group (in words)", "setting": "[2]", "value": "improved"},
      {"measurement": "total cholesterol", "setting": "[3]; [6]", "value": "8.75 ± 2.65", "unit": "mmol/L"},
      {"measurement": "total cholesterol", "setting": "[3]; 1 week, gavage once a day", "value": "7.51 ± 1.79", "unit": "mmol/L"},
      {"measurement": "total cholesterol", "setting": "[3]; 2 weeks, gavage once a day", "value": "6.67 ± 2.03", "unit": "mmol/L"},
      {"measurement": "total cholesterol", "setting": "[3]; 3 weeks, gavage once a day", "value": "6.15 ± 1.47", "unit": "mmol/L"},
      {"measurement": "total cholesterol", "setting": "[3]; 4 weeks, gavage once a day", "value": "5.72 ± 1.48", "unit": "mmol/L"},
      {"measurement": "change in total cholesterol (in words)", "setting": "[3]", "value": "significant"},
      {"measurement": "systolic pressure", "setting": "[4]; [6]", "value": "160 ± 5.3", "unit": "mmHg"},
      {"measurement": "systolic pressure", "setting": "[4]; [7]", "value": "166 ± 2.9", "unit": "mmHg"},
      {"measurement": "systolic pressure", "setting": "[4]; [8]", "value": "161 ± 5.1", "unit": "mmHg"},
      {"measurement": "systolic pressure", "setting": "[4]; [9]", "value": "159 ± 4.2", "unit": "mmHg"},
      {"measurement": "systolic pressure", "setting": "[4]; [10]", "value": "158 ± 3.7", "unit": "mmHg"},
      {"measurement": "lipid-lowering effect improved", "setting": "[5]; comparing with the same dose of lovastatin", "value": 51, "unit": "%"},
      {"measurement": "lipid-lowering effect improved", "setting": "[5]; comparing with the same dose of pravastatin", "value": 46, "unit": "%"},
      {"measurement": "lipid-lowering effect improved", "setting": "[5]; comparing with the same dose of simvastatin", "value": 38, "unit": "%"}
    ]}
  ]
}
